Laboratory results taken from US20010049372A1, “Antiviral nucleoside analogues” (BioChem Pharma Inc., priority 1998, published 2001).
Where two headings read alike, the source gives them in different places.

What was measured:
HIV-1IIIB = assay: Anti-HIV-1 antiviral assay with HIV-1IIIB in various cell types (RT activity); type: cell-based
Procedure: (§1) ANTIVIRAL ASSAYS. The anti-HIV-1 activity of the compound A (−) were assessed by employing HIV-1IIIB in a variety of cell types as previously described (Gu et al., 1992, 1994, 1999; Rando et al., 1995; Salomon et al., 1994). Briefly, cells were incubated with virus at a multiplicity of infection (MOI) of 0.005 for T cell assays and an MOI of 0.5 for monocytic cell assays for 3 hrs. Unbound virus was then removed by washing the cells, followed by seeding the cells into a 96-well plate. The infected cells were cultured in the presence of a serial concentrations of the test compound for 5-7 days. The anti-HIV-1 efficacy was determined by testing for HIV-1 RT activity or p24 level in the cell culture supernatants. All assays were performed in duplicate. Zidovudine and/or lamivudine were used as controls in each experiment.
Activity of the compound A (−) against HIV-1 in various cells. Anti-HIV-1 activity of the compound A (−) were tested in different types of cells, including human peripheral […] cells (PBMCs), T-cell (MT-2 and MT-4) and monocytic cell (U937) lines. The compound A (−) had submicromolar EC50s against HIV-1IIIB in different types of cells tested (Table 2).

CCR15 (Lamivudine^R) = assay: Drug-resistant clinical isolates in PBMCs (p24); type: cell-based, HIV-1; conditions: Human immunodeficiency virus 1, PBMC
Procedure: as §1
(§2) Clinical strains were isolated from PBMCs of HIV-1 infected individuals through co-culture with PBMCs from normal dornors. To determine the RT genotype of the HIV-1 clinical isolates, the proviral DNA was extracted from infected CD4^+ T-cells or PBMCs and the complete RT coding regions were amplified by PCR as previously reported (Gu et al 1992). The PCR product was purified and then directly sequenced using primer RTS (5′-CCAAAAGTTAAACAATGGC-3′) which is located at the 5′ portion of the RT coding region (nucleotide 2603-2621 of HXB2-D coordinates). Antiviral activity was evaluated as described in example 10.

105/F (zidovudine^R) = assay: Drug-resistant clinical isolates in PBMCs (p24); type: cell-based, HIV-1; conditions: Human immunodeficiency virus 1, PBMC
Procedure: as §1, §2

CCR19 (Lamivudine^R) = assay: Drug-resistant clinical isolates in PBMCs (p24); type: cell-based, HIV-1; conditions: Human immunodeficiency virus 1, PBMC
Procedure: as §1, §2

CCR18 (Lamivudine^R) = assay: Drug-resistant clinical isolates in PBMCs (p24); type: cell-based, HIV-1; conditions: Human immunodeficiency virus 1, PBMC
Procedure: as §1, §2

105/A (wt) = assay: Drug-resistant clinical isolates in PBMCs (p24); type: cell-based, HIV-1; conditions: Human immunodeficiency virus 1, PBMC
Procedure: as §1, §2

[1] = Cellular toxicity by WST-1 staining; type: cell-based; conditions: human, CBMCs, Table 4, day 7, read-out: CC50 (μM) WST-1 CBMC
Procedure: (§3) The cellular toxicity of the compounds were assessed on various cells using [^3H]-thymidine uptake. Various cells, including Molt-4, HT1080, DU-145, HepG-2 and HSF, were plated at a concentration of 1-2×10^3 cells per well (96 well plates). After a 24 hr incubation period, 10-fold serial diluted compounds (b 10^−4 M to 10^−10 M) were added to the culture medium and the cells were further incubated for 72 hrs. [^3H]-thymidine was added during the final 18 hr incubation period. After incubation with the [^3H]-thymidine, the cells were washed once with PBS, treated with trypsin if the cells were adherent, and then resuspended in water (hypotonic lysing of cells). The cellular extract was applied directly to a Tomtec Harvester 96. Using this instrument the extracted DNA is adsorbed onto filters, washed and the incorporated [^3H]-thymidine is then counted. The 50% cytotoxic concentration (CC50) was determined by comparing the radioactive counts per minute of the samples in the presence of the compounds against the control. The cellular toxicity of the compounds was also tested by WST-1 staining through assessing proliferation of MT-2, H9, Jurkat, U937, and CBMCs. The established cell lines were cultured in RPMI medium in 96-well plates at a density of 5×10^4 cells/well while CBMCs were plated at a concentration of 0.5×10^6/well. A 10-fold serial diluted (10^−4-10^−7 M) compound was added at day zero. At day 4, the cells were passaged by changing half medium containing appropriately diluted compound. The cell activities were assessed at day 7 using the WST-1 reagent (Boehringer Mannheim) following the protocol provided by the supplier.
In the WST-1 staining experiments, cell lines were cultured in RPMI medium in 96-well plates at a density of 5×10^4 cells/well. CBMCs were plated at a concentration of 0.5×10^6/well. Compounds (10^−4-10^−7 M) were added at day zero. Cell viability was assessed on day 7 using the WST-1 reagent (Boehringer Mannheim) following the protocol provided by the supplier.

[2] = Cellular toxicity by [3H]-thymidine uptake; type: cell-based; conditions: human
Procedure: as §3
(§4) Cellular toxicity was assessed by [^3H]thymidine uptake (de Muys et al. 1999) and WST-1 staining. In the [^3H]thymidine uptake experiments, Molt-4, HT1080, DU-145, HepG2 and HSF, were plated at a concentration of 1-2×10^3 cells per well (96 well plates). PHA-stimulated PBMCs were cultured at a concentration of 4×10^4 cells per well. Following a 24 hr pre-incubation period, test compounds (10^−4 M to 10^−10 M) were added and the cells were incubated for an additional 72 hrs. [^3H]thymidine was added during the final 18 hr incubation period. The cells were then washed once with PBS, treated with trypsin if the cells were adherent, and resuspended in water (hypotonic lysing of cells). The cellular extract was applied directly to a Tomtec Harvester 96. The 50% cytotoxic concentration (CC50) was determined by comparing the radioactive counts per minute obtained from drug-tested samples to those obtained from the control (untreated) cells.

PBMCs = assay: Cellular toxicity by [3H]-thymidine uptake; type: cell-based, human; conditions: Table 4; 72 hrs
Procedure: as §4

[3] = Cellular toxicity by [3H]-thymidine uptake; type: cell-based, human; conditions: human, Table 14, PHA-stimulated PBMCs, read-out: CC50 (μM) [^3H]TTP incorporation in: PBMC
Procedure: as §4

NNRTI^R = assay: Recombinant drug resistant HIV-1 variants (RT activity); type: cell-based; conditions: Human immunodeficiency virus 1
Procedure: as §1
(§5) Recombinant HIV-1 variants were prepared by introducing the designed mutations into HXB2-D by site-directed mutagenesis as described (Gu et al. 1992, 1994). The virus stocks were prepared by transfecting MT-4 cells with infectious viral DNA constructs. Antiviral activity of the compound A (−) was evaluated as described in example 10.

PI^R = assay: as above; type: cell-based; conditions: Human immunodeficiency virus 1
Procedure: as §1, §5

HXB2-D (wt) = assay: Recombinant HIV-1 variants (RT activity); type: cell-based; conditions: Human immunodeficiency virus 1, HXB2
Procedure: as §1, §5

[4] = Human immunodeficiency virus 1, MT2, HIV-1IIIB, MT-2 cells, determined by RT activity, read-out: EC50 (μM) ± S.D. in MT-2 cells

Row | SMILES | EC50 (HIV-1IIIB; [4]) | IC50 (CCR15 (Lamivudine^R)) | IC50 (105/F (zidovudine^R)) | IC50 (CCR19 (Lamivudine^R)) | IC50 (CCR18 (Lamivudine^R)) | IC50 (105/A (wt)) | further results
1 | Nc1nc(NC2CC2)c2ncn([C@H]3C=C[C@@H](CO)C3)c2n1 [Abacavir, abacavir] | 0.1 µM | 0.22 µM | 0.07 µM | 0.58 µM | 1.3 µM | < 0.03 µM | 
2 | Nc1ncnc2c1ncn2CCOCP(=O)(O)O [Adefovir, adefovir] |  | 0.8 µM | 7 µM | 2.3 µM | 2.1 µM | 2 µM | 
3 | Cc1cn([C@H]2C=C[C@@H](CO)O2)c(=O)[nH]c1=O [Stavudine, stavudine] |  | 0.06 µM | 0.12 µM | 0.05 µM | 0.049 µM | 0.063 µM | EC50 (HIV-1IIIB; Human immunodeficiency virus 1, MT2, read-out: EC50 (μM) ± S.D. in MT-2 cells): 0.38 ± 0.26 µM
4 | Nc1ccn([C@H]2CC[C@@H](CO)O2)c(=O)n1 [Zalcitabine, zalcitabine] | 0.05 µM |  |  |  |  |  | CC50 at 7 days [1]: 29 µM; CC50 at 72 h ([2]; DU-145 cells, Table 4, read-out: CC50 (μM) [^3H-]TTP incorporation in: U-145): 5 µM; CC50 at 72 h ([2]; DU-145 cells, Table 14, read-out: CC50 (μM) [^3H]TTP incorporation in: U145): 3.5 µM; CC50 at 72 h ([2]; HSF cells, Table 14, read-out: CC50 (μM) [^3H]TTP incorporation in: HSF): 2 µM; CC50 at 72 h ([2]; HT1080 cells, Table 4, read-out: CC50 (μM) [^3H-]TTP incorporation in: HT1080): 2 µM; CC50 at 72 h ([2]; HT1080 cells, Table 14, read-out: CC50 (μM) [^3H]TTP incorporation in: HT800): 2.5 µM; CC50 at 72 h ([2]; HepG2 cells, Table 4, read-out: CC50 (μM) [^3H-]TTP incorporation in: HepG2): 7 µM; CC50 at 72 h ([2]; HepG2 cells, Table 14, read-out: CC50 (μM) [^3H]TTP incorporation in: HepG2): 6.5 µM; CC50 at 72 h ([2]; Molt-4 cells, Table 4, read-out: CC50 (μM) [^3H-]TTP incorporation in: Molt-4): 2 µM; CC50 at 72 h ([2]; Molt-4 cells, Table 14, read-out: CC50 (μM) [^3H]TTP incorporation in: Molt4): 1 µM; CC50 (μM) [^3H-]TTP incorporation in: PBMC (PBMCs): 50/15; CC50 at 72 h [3]: 35.5 µM
5 | Cc1ccnc2c1NC(=O)c1cccnc1N2C1CC1 [nevirapine] |  |  |  |  |  |  | EC50 (NNRTI^R): > 10 µM
6 | CC(C)(C)NC(=O)[C@@H]1C[C@@H]2CCCC[C@@H]2CN1C[C@@H](O)[C@H](Cc1ccccc1)NC(=O)[C@H](CC(N)=O)NC(=O)c1ccc2ccccc2n1 [saquinavir] |  |  |  |  |  |  | EC50 (PI^R): 0.028 µM; EC50 (HXB2-D (wt)): 0.0015 µM
